Reference: paper PMC3326533 (Cell, 2008)

Molecular target: XPD (S. acidocaldarius) (Sulfolobus acidocaldarius, UniProt Q4JC68)
Conditions: ssDNA-stimulated; temperature and pH not stated here

Chain of XPD (S. acidocaldarius) (Q4JC68 whole entry): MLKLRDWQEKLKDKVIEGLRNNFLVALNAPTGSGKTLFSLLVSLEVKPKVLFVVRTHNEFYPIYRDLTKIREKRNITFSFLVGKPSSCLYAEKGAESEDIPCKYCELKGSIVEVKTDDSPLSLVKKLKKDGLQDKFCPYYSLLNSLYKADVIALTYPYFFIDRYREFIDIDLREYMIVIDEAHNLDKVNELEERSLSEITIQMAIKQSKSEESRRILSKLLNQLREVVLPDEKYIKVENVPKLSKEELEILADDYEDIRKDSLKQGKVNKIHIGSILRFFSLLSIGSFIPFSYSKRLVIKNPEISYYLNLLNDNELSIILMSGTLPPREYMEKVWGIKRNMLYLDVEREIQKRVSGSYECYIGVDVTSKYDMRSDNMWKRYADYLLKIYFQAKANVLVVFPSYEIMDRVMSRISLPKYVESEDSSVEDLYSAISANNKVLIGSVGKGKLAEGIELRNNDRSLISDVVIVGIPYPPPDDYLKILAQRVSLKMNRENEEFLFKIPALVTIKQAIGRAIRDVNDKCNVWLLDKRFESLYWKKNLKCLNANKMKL

Nc1ncnc2c1ncn2[C@@H]1O[C@H](COP(=O)(O)OP(=O)(O)OP(=O)(O)O)[C@@H](O)[C@H]1O [ATP]
ATPase rate: Plot of the ssDNA-stimulated ATPase activities of the indicated wild-type and mutant proteins
